Source: patent US8399672B2, “Compound having affinity for amyloid” (Nihon Medi-Physics Co., Ltd., priority 2007, dated 2013)

Key:
[1] = Measurement of partition coefficient based on the octanol extraction method (log Poctanol); assay type: physicochemical; conditions: octanol / 10 mmol/L phosphate buffer (pH 7.4); for logD: read-out: logPoctanol value
Procedure: Partition coefficients based on the octanol extraction method (hereinafter referred to as log Poctanol) were measured, which are generally known as an indicator of permeability of compounds through the blood-brain barrier (hereinafter referred to as BBB).
Each diethyl ether solution of Compound 1 (Example 15), Compound 2 (Example 16), Compound 3 (Example 17), Compound 4 (Example 18) and [^123I]-IMPY (Comparative Example 1) was each diluted with 10 mg/mL ascorbic acid-containing physiological saline solution, and adjusted to a radioactive concentration of 20-30 MBq/mL. To 2 mL of octanol, 10 μL each of the solutions was added, and 2 mL of 10 mmol/L phosphate buffer (pH 7.4) was added, followed by stirring for 30 seconds. After each mixture was centrifuged (2000 rpm×60 min.) with a low-speed centrifuge (type: CTD4, manufactured by Hitachi Koki, Co., Ltd.), the octanol layer and the water layer were sampled each in an amount of 1 mL, and subjected to measurement of radioactivity count with an autowell gamma system (Type: ARC-301B, manufactured by Aloka). Using the obtained radioactivity count, log Poctanol was calculated in accordance with the equation (1).

[2] = Measurement of transferability into brain and clearance (radioactive accumulation in brain after intravenous injection); assay type: in vivo, male Wistar rats; conditions: rats; for Radioactive accumulation in brain two minutes after the injection (in words): 2 min; for Radioactive accumulation per unit weight of brain, after 2 min.: 2 min after injection; for Radioactive accumulation per unit weight of brain, after 5 min.: 5 min after injection; for Radioactive accumulation per unit weight of brain, after 30 min.: 30 min after injection; for Radioactive accumulation per unit weight of brain, after 60 min.: 60 min after injection; for Clearance of radioactivity from brain (in words): up to 60 min
Procedure: Using Compounds 1, 2 and 3, a time course change of radioactive accumulation in brain of male Wistar rats (7-week old) was measured.
Compound 1 in 10 mg/mL ascorbic acid-containing physiological saline solution (24 MBq/mL in radioactive concentration), Compound 2 in 10 mg/mL ascorbic acid-containing physiological saline solution (30 MBq/mL in radioactive concentration), Compound 4 in 10 mg/mL ascorbic acid-containing physiological saline solution (32 MBq/mL in radioactive concentration) and Compound 3 in 10 mg/mL ascorbic acid-containing physiological saline solution (30 MBq/mL in radioactive concentration) were prepared to obtain sample solutions. The sample solutions were injected under thiopental anesthesia into the tail vein of the male Wistar rats (7-week old) (dosage: 0.05 mL, dosed radioactivity: 1.2-1.5 MBq equivalent). The rats were sacrificed by bleeding from abdominal artery, and brains were removed and subjected to measurement of mass of brains and further subjected to measurement of radioactivity (hereinafter referred to as A in this Example) with a single channel analyzer (detector type: SP-20 manufactured by OHYO KOKEN KOGYO Co., Ltd.) 2, 5, 30 and 60 minutes after the injection. Further, the radioactivity level of the rest of the whole body was measured in the same manner as above (hereinafter referred to as B in this Example). Using these measurement results, radioactive accumulation per unit weight of brain (% ID/g) at the respective time points of dissection was calculated in accordance with the following formula (2) (Examples 19 to 22).
Separately, [^123I]-IMPY in 10 mg/mL ascorbic acid-containing physiological saline solution (20-30 MBq/mL in radioactive concentration) was prepared, the same operation as above was conducted, and radioactive accumulation per unit weight of brain (% ID/g) at the respective time points of dissection was calculated (Comparative Example 2).
Meanwhile, three animals were used for Examples 19 to 22 and Comparative Example 2 at the respective time points.

[3] = molecular target: T1, amyloid in brain (aggregated Aβ1-42 injected into amygdaloid nucleus) (Homo sapiens, UniProt P05067); assay: Confirmation of imaging of amyloid in brain (autoradiogram of brain slice after tail vein injection, Thioflavin T staining); assay type: in vivo, male Wistar rat; conditions: rat
T1 construct: Aβ1-42 (manufactured by Wako); purchased Wako
Procedure: (1) Aβ1-42 (manufactured by Wako) was dissolved in phosphate buffer (pH 7.4) and shaken at 37° C. for 72 hours, to obtain a 1 mg/mL suspension of aggregated Aβ (hereinafter referred to as amyloid suspension in the Examples).
(2) Under thiopental anesthesia, […] of the amyloid suspension was injected into an amygdaloid nucleus on one side of a male Wistar rat (7-week old). As a control, 2.5 μL of a phosphate buffered physiological saline solution (pH 7.4) was injected into an amygdaloid nucleus on the other side of the rat. The rats were examined 1 day after the injection of the amyloid suspension and the phosphate buffered physiological saline solution (pH 7.4).
(3) Compound 1 in a 10 mg/mL ascorbic acid-containing physiological saline solution (24 MBq/mL in radioactivity concentration), Compound 2 in a 10 mg/mL ascorbic acid-containing physiological saline solution (30 MBq/mL in radioactivity concentration) and Compound 4 in a 10 mg/mL ascorbic acid-containing physiological saline solution (32 MBq/mL in radioactivity concentration) were each prepared to obtain a sample solution. This sample solution was injected under thiopental anesthesia into the rat through the tail vein (dosage: 0.5 mL, dosed radioactivity: 12-15 MBq equivalent).
(4) Brain was removed 60 minutes after the injection to prepare a brain slice of 10 μm in thickness with a microtome (type: CM3050S, manufactured by LEICA). The brain slice was exposed to an imaging plate for 20 hours, and then image analysis was carried out by use of a Bio-imaging Analyzer (type: BAS-2500; manufactured by FUJIFILM Corporation).
(5) After the completion of the image analysis using the Bio-imaging Analyzer, pathological staining with Thioflavin T was carried out to perform imaging by use of a fluorescence microscope (manufactured by NIKON Corporation; type: TE2000-U model; excitation wavelength: 400-440 nm; detection wavelength: 470 nm). Thus, it was confirmed that amyloid was deposited on the slice (FIG. 10b, FIG. 11b and FIG. 12b).
The procedure was conducted in the same manner as in Example 23 except that a solution of Compound 3 in 10 mg/mL ascorbic acid-containing physiological saline solution (32 MBq/mL in radioactive concentration) was used as a sample solution, and a brain was removed 120 minutes after injection of the sample solution.

[4] = reported in WO03/106439; cited from earlier work
[5] = normal mice, [125I]-labeled, cited from earlier work; for Transfer into brain: 2 minutes after administration
[6] = brain removed 60 minutes after injection

T1 sequence (P05067 672-713): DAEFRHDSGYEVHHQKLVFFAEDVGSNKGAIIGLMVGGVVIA

Row | logD [1] | Radioactive accumulation in brain two minutes after the injection (in words) [2] | Radioactive accumulation per unit weight of brain, after 2 min. [2] [% ID/g] | Radioactive accumulation per unit weight of brain, after 5 min. [2] [% ID/g] | Radioactive accumulation per unit weight of brain, after 30 min. [2] [% ID/g] | Radioactive accumulation per unit weight of brain, after 60 min. [2] [% ID/g] | SMILES | Clearance of radioactivity from brain (in words) [2] | Accumulation at intracerebral amyloid / capability of imaging intracerebral amyloid ([3]; brain removed 120 minutes after injection) | Accumulation at intracerebral amyloid / capability of imaging intracerebral amyloid [3, 6] | Result in reverse mutation test [4] | Transfer into brain [5] | Clearance from normal tissues [5] | logPoctanol value [1]
1 | 2.6 | significant radioactive accumulation | 0.70 | 0.53 | 0.08 | 0.03 | COc1ccc2nc(-c3ccc(OCCF)c([123I])c3)cn2c1 [Compound 3, 2-[4′-(2″-fluoroethoxy)-3′-[^123I]iodophenyl]-6-methoxyimidazo[1,2-a]pyridine] | tendency to rapidly clear away in 60 minutes | property of accumulating at intracerebral amyloid | – | – | – | – | –
2 | 1.8 | significant radioactive accumulation | 0.42 | 0.26 | 0.04 | 0.02 | COc1cc(-c2cn3cc([123I])ccc3n2)ccc1OCCF [Compound 2, 2-[4′-(2″-fluoroethoxy)-3′-methoxyphenyl]-6-[^123I]iodoimidazo[1,2-a]pyridine] | tendency to rapidly clear away in 60 minutes | – | property of accumulating at intracerebral amyloid | – | – | – | –
3 | – | – | – | – | – | – | CC(=C(C#N)C#N)c1ccc2cc(N(C)CCF)ccc2c1 [FDDNP, 2-(1-{6-[(2-fluoroethyl)(methyl)amino]-2-naphthyl}ethylidene)malononitrile] | – | – | – | positive | – | – | –
4 | – | – | – | – | – | – | CN(C)c1ccc(/C=C/c2ccc(I)cc2)cc1 [m-I-SB, (E)-4-dimethylamino-4′-iodostilbene] | – | – | – | – | transferred into brain | insufficient in clearance from normal tissues | –
5 | 2.7 | significant radioactive accumulation | 0.80 | 0.61 | 0.12 | 0.03 | Cc1cc2nc(-c3ccc(OCCO)cc3)cn2cc1[123I] [Compound 4, 2-[4′-(2″-hydroxyethoxy)phenyl]-6-[^123I]iodo-7-methylimidazo[1,2-a]pyridine] | tendency to rapidly clear away in 60 minutes | – | property of accumulating at intracerebral amyloid | – | – | – | –
6 | – | – | – | – | – | – | CN(C)c1ccc(-c2nc3ccc(I)cc3s2)cc1 [TZDM, 6-iodo-2-[4′-(N,N-dimethylamino)phenyl]benzothiazole] | – | – | – | – | transferred into brain | insufficient in clearance from normal tissues | –
7 | – | – | – | – | – | – | CN(C)c1ccc(-c2nc3ccc(I)cc3o2)cc1 [IBOX, 6-iodo-2-[4′-(N,N-dimethylamino)phenyl]benzoxazole] | – | – | – | – | transferred into brain | insufficient in clearance from normal tissues | –
8 | 2.3 | significant radioactive accumulation | 0.74 | 0.53 | 0.11 | 0.03 | COc1ccc2nc(-c3ccc(OCCCF)c([123I])c3)cn2c1 [Compound 1, 2-[4′-(3″-fluoropropoxy)-3′-[^123I]iodophenyl]-6-methoxyimidazo[1,2-a]pyridine] | tendency to rapidly clear away in 60 minutes | – | property of accumulating at intracerebral amyloid | – | – | – | –

Row | SMILES | logD [1] | Radioactive accumulation in brain two minutes after the injection (in words) [2] | Radioactive accumulation per unit weight of brain, after 2 min. [2] [% ID/g] | Radioactive accumulation per unit weight of brain, after 5 min. [2] [% ID/g] | Radioactive accumulation per unit weight of brain, after 30 min. [2] [% ID/g] | Radioactive accumulation per unit weight of brain, after 60 min. [2] [% ID/g] | Clearance of radioactivity from brain (in words) [2] | Accumulation at intracerebral amyloid / capability of imaging intracerebral amyloid ([3]; brain removed 120 minutes after injection) | Accumulation at intracerebral amyloid / capability of imaging intracerebral amyloid [3, 6] | Result in reverse mutation test [4] | Transfer into brain [5] | Clearance from normal tissues [5] | logPoctanol value [1]
9 | CN(C)c1ccc(-c2cn3cc([123I])ccc3n2)cc1 [[^123I]-IMPY, reference compound] | – | – | 1.19 | 0.97 | 0.23 | 0.09 | – | – | – | – | – | – | 1.9
